The target in assay [1] is T1, JAK3 enzyme (Homo sapiens (Human), UniProt P52333). The experiment in a line: JAK Caliper enzyme assay at 4 μM ATP. It counts as biochemical. The procedure: (§1) JAK Caliper Enzyme Assay at 4 μM or 1 mM ATP
(§2) Test article was solubilized in dimethyl sulfoxide (DMSO) to a stock concentration of 30 mM. An 11-point half log dilution series was created in DMSO with a top concentration of 600 μM. […] The compound plates were diluted 1 to 60 resulting in a top final assay compound concentration of 10 μM and a 2% DMSO concentration.
(§3) Test article and assay controls were added to a 384-well plate. Reaction mixtures contained 20 mM HEPES, pH 7.4, 10 mM magnesium chloride, 0.01% bovine serum albumin (BSA), 0.0005% Tween 20, 4 μM or 1 mM ATP and 1 μM peptide substrate. […] The assays were initiated by the addition 1 nM JAK3 enzyme and were incubated at room temperature 75 minutes for JAK3. Enzyme concentrations and incubation times were optimized for each new enzyme preps and were modified slightly over time to ensure 20%-30% phosphorylation. The assays were stopped with a final concentration of 10 mM EDTA, 0.1% Coating Reagent and 100 mM HEPES, pH=7.4. The assay plates were placed on a Caliper Life Science Lab Chip 3000 (LC3000) instrument, and each well was sampled using appropriate separation conditions to measure the unphosphorylated and phosphorylated peptide.

Assay [2] has as its target T1, JAK3 enzyme. The experiment in a line: JAK Caliper enzyme assay at 1 mM ATP. It counts as biochemical. The procedure: as §1, §2, §3
The subject of assay [3] is IL-15 induced STAT5 phosphorylation in human whole blood lymphocytes. The experiment in a line: HWB IL-15 induced STAT5 phosphorylation assay. It counts as cell-based. Conditions: Lymphocyte, IL-15 stimulated, read-out: HWB-IL15-pSTAT5 IC50. The method, then:
HWB IL-15 Induced STAT5 Phosphorylation Assay
After mixing and incubating for 45 minutes at 37° C., 5 μl D-PBS (unstimulated control) or 20× stocks of 5 μl human IL-15 (final concentration is 50 ng/ml) were added, and mixed three times. After incubating 15 minutes at 37° C., 1× Lyse/Fix Buffer (BD Phosflow 5× Lyse/Fix Buffer) was added to all wells at 1000 μl/well, then incubated for 20 minutes at 37° C. and spun 5 mins at 1200 rpm. […] Following incubating at 4° C. over night, all the samples were transferred to 96-well polypropylene U-bottom plate, and checked by flow cytometry gated on total lymphocytes.

In assay [4] the test system is IL-15 induced P-STAT5 in human PBMC. The experiment in a line: PBMC IL-15 induced P-STAT5. It counts as cell-based. Conditions: IL-15 stimulated, read-out: PBMC IL15-STAT5 IC50. The procedure:
PBMC IL-15 Induced P-STAT5
Frozen human PBMC (200-250 million cells/vial) was thawed at 37° C. The cells were transferred to 10 mL warm medium in a 50-mL conical tube, and centrifuged at 1,200 RPM at room temperature for 5 min. The supernatant was aspirated. […] After adding 47 ml D-PBS (37° C.) to PBMC/FBS suspension, centrifuging at 1,200 RPM at room temperature for 5 min, and aspirating the supernatant, the cells were resuspended in 20 mL warm RPMI medium. Ninety μL of cell suspension were pipetted per well in a 96-well, deep-well, V-bottom plate, and the plate was incubated at 37° C. for 30 min. […] After adding 0.8 mL staining buffer per well, the plates were centrifuged at 1,200 RPM (Beckman GS-6R or Sorvall Legend) at room temperature for 5 min, and again the supernatant was aspirated using a 8-channel or 12-channel manifold. The plate was vortexed, and 0.35 mL 90% methanol/10% H2O (−20° C.) was added per well, and the plate incubated on ice for 20 min. After again adding 0.8 mL staining buffer per well, the plates were centrifuged at 1,200 RPM (Beckman GS-6R or Sorvall Legend) at room temperature for 5 min, and again the supernatant was aspirated using a 8-channel or 12-channel manifold, and then 0.8 mL Staining buffer was added per well. […] Samples were analyzed using a BD Calibur™ or BD FACSCanto™ flow cytometer equipped with the BD High Throughput Sampler.

T1 sequence (P52333 whole entry, species assumed): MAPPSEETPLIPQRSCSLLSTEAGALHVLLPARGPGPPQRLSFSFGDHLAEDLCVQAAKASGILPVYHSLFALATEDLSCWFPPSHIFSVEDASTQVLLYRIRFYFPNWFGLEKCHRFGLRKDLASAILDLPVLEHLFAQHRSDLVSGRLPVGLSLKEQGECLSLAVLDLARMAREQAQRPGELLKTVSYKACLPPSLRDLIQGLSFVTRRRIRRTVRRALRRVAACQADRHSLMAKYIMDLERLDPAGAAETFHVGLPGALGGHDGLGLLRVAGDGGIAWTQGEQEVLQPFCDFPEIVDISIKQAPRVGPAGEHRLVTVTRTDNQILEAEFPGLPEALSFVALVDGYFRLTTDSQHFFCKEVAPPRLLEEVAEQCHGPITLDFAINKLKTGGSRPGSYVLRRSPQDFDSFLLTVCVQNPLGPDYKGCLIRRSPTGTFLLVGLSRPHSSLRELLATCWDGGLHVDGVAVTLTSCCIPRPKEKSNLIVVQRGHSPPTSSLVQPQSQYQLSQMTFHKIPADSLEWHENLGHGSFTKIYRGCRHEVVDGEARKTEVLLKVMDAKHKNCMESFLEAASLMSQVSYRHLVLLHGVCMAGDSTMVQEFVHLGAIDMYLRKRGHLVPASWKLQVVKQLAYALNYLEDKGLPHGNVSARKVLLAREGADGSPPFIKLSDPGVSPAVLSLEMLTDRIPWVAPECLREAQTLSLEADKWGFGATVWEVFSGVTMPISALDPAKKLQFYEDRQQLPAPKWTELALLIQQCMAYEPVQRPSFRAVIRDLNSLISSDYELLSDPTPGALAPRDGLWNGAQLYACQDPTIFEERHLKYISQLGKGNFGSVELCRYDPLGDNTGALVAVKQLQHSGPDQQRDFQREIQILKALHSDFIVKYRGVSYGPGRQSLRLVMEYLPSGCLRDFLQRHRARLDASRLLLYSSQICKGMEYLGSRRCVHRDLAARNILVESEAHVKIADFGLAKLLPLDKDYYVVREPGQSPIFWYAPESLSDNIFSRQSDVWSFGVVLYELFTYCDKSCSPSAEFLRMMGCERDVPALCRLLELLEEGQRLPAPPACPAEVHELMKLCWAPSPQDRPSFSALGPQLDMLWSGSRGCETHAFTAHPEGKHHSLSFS

With `C=CC(=O)N1C[C@H](Nc2ncnc3[nH]ccc23)[C@H]2CC[C@@H]1C2` (racemic) [Example 116, Rac-1-((1R,4R,5S)-4-(7H-pyrrolo[2,3-d]pyrimidin-4-ylamino)-2-azabicyclo[3.2.1]octan-2-yl)prop-2-en-1-one], the IC50 (usually the point on the concentration scale where inhibition reaches its midpoint) against JAK3 enzyme [1] was 0.418 µM; against JAK3 enzyme [2], greater than 10 µM; in assay [3] it was greater than 10 µM; in assay [4], greater than 10 µM.

Values taken from patent US9617258B2, “Pyrrolo[2,3-d]pyrimidinyl, pyrrolo[2,3-b]pyrazinyl and pyrrolo[2,3-d]pyridinyl acrylamides” (Pfizer Inc., priority 2013, dated 2017).
